According to PubChem BioAssay (NCI):
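Grown in 96-well plates, cells were treated for 48 hours with each compound at five concentrations. Insufficient inhibition: endpoint recorded as highest concentration tested. TGI marks complete inhibition of growth.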 Where a SMILES comes first, the peptide text is derived from it. The star is where a group is joined. Boc = CC(C)(C)OC(=O)*; OSu = O=C1CCC(=O)N1O*

How the values were obtained:
Assay in all cases: NCI anticancer screen, dose series, 48 h
HCT-116 colon = tested on: HCT-116 colon
BT-549 breast = tested on: BT-549 breast
COLO 205 colon = tested on: COLO 205 colon
ACHN renal = tested on: ACHN renal
SNB-75 CNS = tested on: SNB-75 CNS
K-562 leukemia = tested on: K-562 leukemia
KM12 colon = tested on: KM12 colon
HT29 colon = tested on: HT29 colon
TK-10 renal = tested on: TK-10 renal
NCI/ADR-RES ovarian = tested on: NCI/ADR-RES ovarian
A549 NSCLC = tested on: A549 NSCLC

SMILES | TGI (HCT-116 colon) | TGI (BT-549 breast) | TGI (COLO 205 colon) | TGI (ACHN renal) | TGI (SNB-75 CNS) | TGI (K-562 leukemia) | TGI (KM12 colon) | TGI (HT29 colon) | TGI (TK-10 renal) | TGI (NCI/ADR-RES ovarian) | TGI (A549 NSCLC)
Oc1ccc(-c2nc(-c3cccnc3)c(-c3ccc(Cl)cc3)[nH]2)cc1O | 26.7 µM | 21.6 µM | 30.3 µM | 26.1 µM | 20.2 µM | > 100 µM | 21.2 µM | 27.7 µM | 26.7 µM | 32.5 µM | 54.1 µM
COC(=O)/C=C\n1c(C)cc(=O)[nH]c1=O | > 100 µM | > 100 µM | > 100 µM | > 100 µM | > 100 µM | > 100 µM | > 100 µM | > 100 µM | > 100 µM | > 100 µM | > 100 µM
Cn1c(=O)c(C(=O)Nc2nc(C34CC5CC(CC(C5)C3)C4)cs2)c(O)c2ccccc21 | > 100 µM | > 100 µM | > 100 µM | > 100 µM | > 100 µM | > 100 µM | > 100 µM | > 100 µM | > 100 µM | 70.2 µM | > 100 µM
CCCCCCCCOC1C(O)C(O)C(O)C(O)C12CO2 (configuration not stated) | > 100 µM | > 100 µM | > 100 µM | > 100 µM | > 100 µM | > 100 µM | > 100 µM | > 100 µM | > 100 µM | > 100 µM | > 100 µM
O=S(=O)(O)c1cc(O)c2c(N=Cc3ccccc3O)cc(S(=O)(=O)O)cc2c1 | > 100 µM | > 100 µM | > 100 µM | > 100 µM | > 100 µM | > 100 µM | > 100 µM | > 100 µM | > 100 µM | > 100 µM | > 100 µM
Cc1c(Cl)nc(Nc2nc3ccccc3[nH]2)nc1Cl | > 100 µM | > 100 µM | > 100 µM | > 100 µM | > 100 µM | > 100 µM | 41.6 µM | 89 µM | > 100 µM | > 100 µM | > 100 µM
CC(O)c1cc2c(s1)C(=O)c1sccc1C2=O (configuration not stated) | 0.485 µM | 0.175 µM | 1.09 µM | – | 0.218 µM | > 100 µM | 0.593 µM | 0.597 µM | 0.459 µM | 0.59 µM | 0.767 µM
COc1ccc2nc3ccc(OC)cc3c(SCCO)c2c1 | > 69.8 µM | > 100 µM | > 64.3 µM | > 100 µM | 81.8 µM | > 100 µM | > 63.8 µM | > 48.2 µM | > 100 µM | > 80.3 µM | > 100 µM
Nn1c(COc2cccc(OCc3n[nH]c(=S)n3N)c2)n[nH]c1=S | > 100 µM | > 100 µM | > 100 µM | > 100 µM | > 100 µM | > 100 µM | > 100 µM | > 100 µM | > 100 µM | > 100 µM | > 100 µM
COC(=O)[C@]1(c2cc3ccccc3n2S(=O)(=O)c2ccccc2)CC2CN(C(C)=O)C1CC2=O (some centres not stated) | 4.2 µM | 7.24 µM | 7.29 µM | 3.97 µM | 12.3 µM | 12.1 µM | 8.22 µM | 4.55 µM | 23.4 µM | > 40.4 µM | 13.1 µM
CCOC(=O)C1=CNC(C(=O)OCC)C1c1cccn1-c1ccc(Cl)cc1[N+](=O)[O-] (configuration not stated) | 35.7 µM | 61.2 µM | > 100 µM | > 100 µM | 51.4 µM | 85.9 µM | 47.5 µM | 30.8 µM | 54.9 µM | 62.5 µM | > 100 µM
C1CCC2(CC1)O[C@@H]1[C@@H](O2)[C@@H](O[C@H]2O[C@@H]3COC4(CCCCC4)O[C@H]3[C@@H]3OC4(CCCCC4)O[C@@H]23)O[C@@H]2COC3(CCCCC3)O[C@@H]12 | > 100 µM | > 100 µM | > 100 µM | > 100 µM | > 100 µM | > 100 µM | > 100 µM | > 100 µM | > 100 µM | > 100 µM | > 100 µM
CC(=O)[C@@]1(C)CC2(CCN(C)CC2)OC1C (some centres not stated) | > 100 µM | > 100 µM | > 100 µM | > 100 µM | > 100 µM | > 100 µM | > 100 µM | > 100 µM | > 100 µM | > 100 µM | > 100 µM
CC[C@]12C=CCN3CC[C@@]4(c5cc(Br)c(OC)cc5N(C)[C@H]4[C@@](O)(C(=O)NN)[C@@H]1O)[C@@H]32 | > 100 µM | > 100 µM | > 100 µM | > 100 µM | 43.6 µM | > 100 µM | > 100 µM | > 100 µM | > 100 µM | > 100 µM | > 100 µM
S=C(NC1=NCC(CN2CCN(c3ccccc3)CC2)O1)Nc1ccccc1 (configuration not stated) | > 100 µM | > 100 µM | > 100 µM | > 100 µM | > 100 µM | > 100 µM | > 100 µM | > 100 µM | > 100 µM | > 100 µM | > 100 µM
C[C@]12CC[C@H]3[C@@H](CC=C4C[C@@H](N5CCCC5)CC[C@@]43C)[C@@H]1C[C@H](N1CCOCC1)[C@@H]2O | > 100 µM | > 100 µM | > 100 µM | > 100 µM | > 100 µM | 74.3 µM | > 100 µM | > 100 µM | > 100 µM | > 100 µM | > 100 µM
CC(C)/C(Cl)=N\OC(=O)Nc1ccccc1F | 23.9 µM | 27.6 µM | 4.2 µM | 24.9 µM | 23.1 µM | 6.52 µM | 40.3 µM | 54.3 µM | 27.6 µM | 30.7 µM | 35.6 µM
O=C1NC(SSC2=NNC3(C(=O)N2)c2ccccc2-c2ccccc23)=NNC12c1ccccc1-c1ccccc12 | > 10 µM | > 10 µM | > 10 µM | > 10 µM | > 10 µM | > 10 µM | > 10 µM | > 10 µM | > 10 µM | > 10 µM | > 10 µM
COC(=O)C1C/C(=C/N(C)C)C(=S)N1 (configuration not stated) | > 100 µM | > 100 µM | > 100 µM | > 100 µM | > 100 µM | > 100 µM | > 100 µM | > 100 µM | > 100 µM | > 100 µM | > 100 µM
CC[C@H](O)[C@H](C)C=C1SCCCS1 | > 100 µM | > 100 µM | > 100 µM | > 100 µM | > 100 µM | > 100 µM | > 100 µM | > 100 µM | > 100 µM | > 100 µM | > 100 µM
COc1ccc2c(CCN)c(C(=O)O)[nH]c2c1 | > 100 µM | > 100 µM | > 100 µM | > 100 µM | > 100 µM | > 100 µM | > 100 µM | > 100 µM | > 100 µM | > 100 µM | > 100 µM
O=C(c1ccccc1)N1CCN(C(=S)N(C(=O)c2ccccc2)c2ccccc2)C1=S | 12.6 µM | 13.7 µM | 13.2 µM | 7.2 µM | 6.56 µM | > 100 µM | 20.5 µM | 31.2 µM | 16.6 µM | > 27.7 µM | 19.1 µM
CN(CCn1cnc2c1c(=O)n(C)c(=O)n2C)C1CCCCC1 | > 100 µM | > 100 µM | > 100 µM | > 100 µM | > 100 µM | > 100 µM | > 100 µM | > 100 µM | > 100 µM | > 100 µM | > 100 µM
CCCCC(=O)NS(=NC(=O)c1ccccc1)C(Cl)(Cl)Cl (configuration not stated) | > 100 µM | > 100 µM | > 100 µM | > 100 µM | > 100 µM | > 100 µM | > 100 µM | > 100 µM | > 100 µM | > 100 µM | > 100 µM
COC(=O)CCC(=O)NC1=C(Nc2ccc(OC)cc2)C(=O)c2ccccc2C1=O | 25 µM | 29 µM | 28 µM | 54.5 µM | 21.2 µM | > 86.8 µM | 45.5 µM | 30.1 µM | 85.3 µM | 60.3 µM | 29.7 µM
CC(NC(=O)C(NC(=O)OC(C)(C)C)C(C)C)C(=O)NCC(=O)ON1C(=O)CCC1=O (stereo not drawn) (Boc-Val-Ala-Gly-OSu; configuration not given here) | > 100 µM | > 100 µM | > 100 µM | > 100 µM | > 100 µM | > 100 µM | > 100 µM | > 100 µM | > 100 µM | > 100 µM | > 100 µM
COC(=O)CCC(=O)NC1=C(NCc2ccccc2)C(=O)c2ccccc2C1=O | > 100 µM | > 100 µM | 76.1 µM | > 100 µM | > 100 µM | > 100 µM | > 100 µM | > 100 µM | > 100 µM | > 100 µM | > 100 µM
CN(C)CCNC(=O)c1cccc2c(NCCN(C)C)c3ccccc3nc12 | 3.9 µM | 18.4 µM | 7.23 µM | 9.59 µM | 11.1 µM | 6.86 µM | 11.8 µM | 5.34 µM | 21.9 µM | 25.7 µM | 6.05 µM
CCOC(=O)c1cc(-c2cc(OC)c(OC)c([N+](=O)[O-])c2)c([N+](=O)[O-])n1C | > 10 µM | > 10 µM | – | > 10 µM | > 10 µM | > 10 µM | > 10 µM | > 10 µM | > 10 µM | > 10 µM | > 10 µM
